Source: PubChem BioAssay AID192 (DTP/NCI, 2004)
Where “and” joins values, the source holds several entries; their conditions need not be identical. Equal entries are not always repeated. Inconclusive results and toxic doses are left out. The calls were made as follows: active = survival T/C of 150% or more; inactive = T/C below 125% in these data.

Test system: BDF1 mice, B16 melanoma ip, median survival T/C
Test: NCI In Vivo Anticancer Drug Screen. Data for tumor model B16 Melanoma (intraperitoneal) in B6D2F1 (BDF1) mice
Details: endpoint: median survival time, higher = longer survival
Summary of the method: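 In this screen, activity was judged from survival or tumor size in treated versus vehicle-treated tumor-bearing mice, reported as T/C.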

[1] = dose: 25.0 mg/kg/injection, schedule: Q01DX009 (ip), vehicle: saline
[2] = dose: 50.0 mg/kg/injection, schedule: Q01DX009 (ip), vehicle: saline
[3] = dose: 100.0 mg/kg/injection, schedule: Q01DX009 (ip), vehicle: saline
[4] = dose: 50.0 mg/kg/injection, schedule: Q01DX009 (ip), vehicle: Klucel (hydroxypropylcellulose) (HPC)
[5] = dose: 100.0 mg/kg/injection, schedule: Q01DX009 (ip), vehicle: Klucel (hydroxypropylcellulose) (HPC)
[6] = dose: 200.0 mg/kg/injection, schedule: Q01DX009 (ip), vehicle: Klucel (hydroxypropylcellulose) (HPC)
[7] = dose: 25.0 mg/kg/injection, schedule: Q01DX009 (ip), vehicle: Klucel (hydroxypropylcellulose) (HPC)
[8] = dose: 6.25 mg/kg/injection, schedule: Q01DX009 (ip), vehicle: saline
[9] = dose: 12.5 mg/kg/injection, schedule: Q01DX009 (ip), vehicle: saline

Measured: T/C

CCCCC(=O)N(c1ccc(Nc2c3ccccc3nc3cc([N+](=O)[O-])ccc23)cc1)S(C)(=O)=O
inactive: dose: 3.8 mg/kg/injection, schedule: Q01DX009 (ip), vehicle: saline with Tween-80 102 % of control | dose: 12.5 mg/kg/injection, schedule: Q01DX001 (ip), vehicle: saline with Tween-80 122 % of control | dose: 15.0 mg/kg/injection, schedule: Q01DX009 (ip), vehicle: saline with Tween-80 120 % of control

COc1cccc(Cc2ccncc2)c1OC
inactive: dose: 25.0 mg/kg/injection, schedule: Q01DX009 (ip), vehicle: water 104 % of control | dose: 50.0 mg/kg/injection, schedule: Q01DX009 (ip), vehicle: water 98 % of control | dose: 100.0 mg/kg/injection, schedule: Q01DX009 (ip), vehicle: water 98 % of control

COC(=O)Nc1cccc(-c2nc3ccc(NC(=O)OC)cc3c(=O)n2-c2ccccc2)c1
inactive: dose: 8.0 mg/kg/injection, schedule: Q01DX009 (ip), vehicle: Klucel (hydroxypropylcellulose) (HPC) 107 % of control | dose: 8.0 mg/kg/injection, schedule: Q01DX009 (ip), vehicle: saline 112 % of control | dose: 16.0 mg/kg/injection, schedule: Q01DX009 (ip), vehicle: Klucel (hydroxypropylcellulose) (HPC) 107 % of control | dose: 50.0 mg/kg/injection, schedule: Q04DX005 (ip), vehicle: other 112 % of control | dose: 50.0 mg/kg/injection, schedule: Q04DX006 (ip), vehicle: saline 117 % of control | dose: 64.0 mg/kg/injection, schedule: Q01DX009 (ip), vehicle: saline 123 % of control | dose: 100.0 mg/kg/injection, schedule: Q04DX005 (ip), vehicle: other 120 % of control | dose: 100.0 mg/kg/injection, schedule: Q04DX005 (oral), vehicle: saline 99 % of control | dose: 200.0 mg/kg/injection, schedule: Q04DX005 (oral), vehicle: saline 97 % of control | dose: 400.0 mg/kg/injection, schedule: Q04DX005 (oral), vehicle: saline 114 % of control

COc1cccc(O)c1
inactive: dose: 25.0 mg/kg/injection, schedule: Q01DX009 (ip), vehicle: saline with Tween-80 97 % of control | dose: 50.0 mg/kg/injection, schedule: Q01DX009 (ip), vehicle: saline with Tween-80 96 % of control | dose: 100.0 mg/kg/injection, schedule: Q01DX009 (ip), vehicle: saline with Tween-80 91 % of control | dose: 200.0 mg/kg/injection, schedule: Q01DX009 (ip), vehicle: saline with Tween-80 86 % of control

Cc1cc(=O)[nH]c2c1C(=O)c1c(C)cc(=O)n(C)c1C2=O
inactive: dose: 0.5 mg/kg/injection, schedule: Q04DX003 (ip), vehicle: Klucel (hydroxypropylcellulose) (HPC) 92 % of control | dose: 1.25 mg/kg/injection, schedule: Q04DX003 (ip), vehicle: Klucel (hydroxypropylcellulose) (HPC) 102 % of control | dose: 2.5 mg/kg/injection, schedule: Q04DX003 (ip), vehicle: Klucel (hydroxypropylcellulose) (HPC) 89 % of control

N[C@@H](Cc1ccc(O)c(O)c1)C(=O)O
inactive: [1] 109 % of control | [2] 98 % of control and 100 % of control | [3] 102 % of control and 104 % of control | dose: 200.0 mg/kg/injection, schedule: Q01DX009 (ip), vehicle: saline 102 % of control and 108 % of control | dose: 400.0 mg/kg/injection, schedule: Q01DX009 (ip), vehicle: saline 97 % of control and 104 % of control

C1CC[N-]CC1.C1CC[N-]CC1.[Cl][Pt+2]([Cl])([Cl])[Cl]
inactive: [4] 111 % of control | [5] 120 % of control | [6] 123 % of control

Cc1ccc(CNc2ccc(C)cc2)cc1
inactive: [5] 100 % of control | [6] 100 % of control

CC1(C)N=C(N)N=C(N)N1c1ccc(Cl)cc1Cl
inactive: dose: 12.5 mg/kg/injection, schedule: Q01DX009 (ip), vehicle: Klucel (hydroxypropylcellulose) (HPC) 108 % of control | [7] 111 % of control | [4] 123 % of control

COc1ccc(/C=C/c2nc3ccccc3nc2/C=C/c2ccc(OC)c(OC)c2)cc1OC
inactive: dose: 6.25 mg/kg/injection, schedule: Q01DX009 (ip), vehicle: carboxymethylcellulose (CMC) 99 % of control | dose: 12.5 mg/kg/injection, schedule: Q01DX009 (ip), vehicle: carboxymethylcellulose (CMC) 92 % of control | dose: 25.0 mg/kg/injection, schedule: Q01DX009 (ip), vehicle: carboxymethylcellulose (CMC) 89 % of control

O=C(Nc1ccccc1F)Nc1ccccc1Cl
inactive: [7] 96 % of control | [4] 92 % of control | [5] 92 % of control | [6] 95 % of control

CC(=O)O[C@H]1C(=O)[C@@]2(C)[C@H]([C@H](OC(=O)c3ccccc3)[C@]3(O)C[C@H](OC(=O)[C@H](O)[C@@H](NC(=O)c4ccccc4)c4ccccc4)C(C)=C1C3(C)C)[C@]1(OC(C)=O)CO[C@@H]1C[C@@H]2O
inactive: dose: 0.66 mg/kg/injection, schedule: Q01DX005 (iv), vehicle: other 100 % of control | dose: 0.66 mg/kg/injection, schedule: Q08HX018 (ip), vehicle: other 110 % of control | dose: 1.25 mg/kg/injection, schedule: Q01DX009 (oral), vehicle: Klucel (hydroxypropylcellulose) (HPC) 91 % of control | dose: 1.48 mg/kg/injection, schedule: Q01DX005 (iv), vehicle: other 105 % of control | dose: 2.5 mg/kg/injection, schedule: Q01DX009 (ip), vehicle: other 106 % of control | dose: 2.5 mg/kg/injection, schedule: Q01DX009 (oral), vehicle: Klucel (hydroxypropylcellulose) (HPC) 116 % of control | dose: 3.33 mg/kg/injection, schedule: Q01DX005 (iv), vehicle: other 95 % of control | dose: 7.5 mg/kg/injection, schedule: Q01DX005 (iv), vehicle: other 100 % of control | dose: 7.5 mg/kg/injection, schedule: Q08HX018 (ip), vehicle: Klucel (hydroxypropylcellulose) (HPC) 122 % of control | dose: 11.2 mg/kg/injection, schedule: Q01DX005 (iv), vehicle: other 108 % of control | dose: 20.0 mg/kg/injection, schedule: Q01DX009 (oral), vehicle: Klucel (hydroxypropylcellulose) (HPC) 108 % of control | dose: 40.0 mg/kg/injection, schedule: Q01DX009 (oral), vehicle: Klucel (hydroxypropylcellulose) (HPC) 106 % of control
active: dose: 0.66 mg/kg/injection, schedule: Q08HX018 (ip), vehicle: Klucel (hydroxypropylcellulose) (HPC) 160 % of control | dose: 0.98 mg/kg/injection, schedule: Q08HX018 (ip), vehicle: Klucel (hydroxypropylcellulose) (HPC) 183 % of control | dose: 1.25 mg/kg/injection, schedule: Q01DX009 (ip), vehicle: Klucel (hydroxypropylcellulose) (HPC) 153 % of control and 181 % of control | dose: 1.32 mg/kg/injection, schedule: Q01DX009 (ip), vehicle: Klucel (hydroxypropylcellulose) (HPC) 164 % of control | dose: 1.48 mg/kg/injection, schedule: Q08HX018 (ip), vehicle: Klucel (hydroxypropylcellulose) (HPC) 207 % of control | dose: 1.48 mg/kg/injection, schedule: Q08HX018 (ip), vehicle: other 174 % of control | dose: 1.98 mg/kg/injection, schedule: Q01DX009 (ip), vehicle: Klucel (hydroxypropylcellulose) (HPC) 183 % of control and 200 % of control | dose: 2.22 mg/kg/injection, schedule: Q08HX018 (ip), vehicle: Klucel (hydroxypropylcellulose) (HPC) 187 % of control | dose: 2.22 mg/kg/injection, schedule: Q08HX018 (ip), vehicle: other 193 % of control | dose: 2.96 mg/kg/injection, schedule: Q01DX009 (ip), vehicle: Klucel (hydroxypropylcellulose) (HPC) 206 % of control and 217 % of control | dose: 3.33 mg/kg/injection, schedule: Q08HX018 (ip), vehicle: Klucel (hydroxypropylcellulose) (HPC) 198 % of control | dose: 4.44 mg/kg/injection, schedule: Q01DX009 (ip), vehicle: Klucel (hydroxypropylcellulose) (HPC) 194 % of control and 231 % of control | dose: 5.0 mg/kg/injection, schedule: Q08HX018 (ip), vehicle: Klucel (hydroxypropylcellulose) (HPC) 240 % of control | dose: 5.0 mg/kg/injection, schedule: Q08HX018 (ip), vehicle: other 150 % of control and 208 % of control

CN(C)CCC=C1c2ccccc2CCc2ccccc21
inactive: dose: 3.12 mg/kg/injection, schedule: Q01DX009 (ip), vehicle: saline 109 % of control | [8] 117 % of control | [9] 100 % of control | [1] 102 % of control

COc1nc(=O)n(C2C=CC(=O)O2)cc1F (stereo not drawn)
inactive: [8] 101 % of control | [9] 95 % of control | [1] 89 % of control | [2] 87 % of control | [3] 91 % of control
